Test results: patent US20040029823A1, “Antisense oligonucleotide compositions and methods for the modulation of JNK proteins” (priority 1997, published 2004)
Strand notation (5' to 3'): a small letter for the sugar, then the base; units joined by * are phosphorothioate-linked, units joined directly phosphodiester-linked; [ ] holds rarer units or linkages, { } end groups; capitals alone tell only the bases. d = 2'-deoxy (DNA)

Key:
JNK1 mRNA = test: Northern assay of JNK1 mRNA expression in A549 cells; type: cell-based, human; settings: for % EXPRESSION: relative to LIPOFECTIN-only control; for Normalized % Control: JNK1 mRNA dose response
Protocol: (§1) In order to evaluate the activity of potential JNK-modulating oligonucleotides, human lung carcinoma cell line A549 (American Type Culture Collection, Rockville, Md. No. ATCC CCL-185) cells or other cell lines as indicated in the Examples, were grown and treated with oligonucleotides or control solutions as detailed below. After harvesting, cellular extracts were prepared and examined for specific JNK mRNA levels or JNK protein levels (i.e., Northern or Western assays, respectively). In all cases, “% expression” refers to the amount of JNK-specific signal in an oligonucleotide-treated cell relative to an untreated cell (or a cell treated with a control solution that lacks oligonucleotide), and “% inhibition” is calculated as
(§2) 100%−% Expression =% Inhibition.
(§3) Northern Assays: The mRNA expression of each JNK protein was determined by using a nucleic acid probe specifically hybridizable thereto. Nucleic acid probes specific for JNK1, JNK2 and JNK3 are described in Examples 3, 4 and 5, respectively. The probes were radiolabelled by means well known in the art (see, e.g., Short Protocols in Molecular Biology, 2nd Ed., Ausubel et al., Eds., John Wiley & Sons, New York, 1992, pages 3-11 to 2-3-44 and 4-17 to 4-18; Ruth, Chapter 6 In: Methods in Molecular Biology, Vol. 26: Protocols for Oligonucleotide Conjugates, Agrawal, ed., Humana Press Inc., Totowa, N.J., 1994, pages 167-185; and Chapter 10 In: Molecular Cloning: A Laboratory Manual, 2nd Ed., Sambrook et al., Eds., pages 10.1-10.70). The blots were stripped and reprobed with a ^32P-labeled glyceraldehyde 3-phosphate dehydrogenase (G3PDH) probe (Clontech Laboratories, Inc., Palo Alto, Calif.) in order to confirm equal loading of RNA and to allow the levels of JNK transcripts to be normalized with regard to the G3PDH signals.
(§4) A549 cells were grown in T-75 flasks until 80-90% confluent. At this time, the cells were washed twice with 10 mL of media (DMEM), followed by the addition of 5 mL of DMEM containing 20 μg/mL of LIPOFECTIN™ (i.e., 1:1 (w/w) DOTMA/DOPE, Life Technologies, Gaithersburg, Md.; DOTMA=N-[1-(2,3-dioleyoxy)propyl]-N,N,N-trimethylammonium chloride; DOPE=dioleoyl phosphatidylethanolamine). The oligonucleotides were added from a 10 μM stock solution to a final concentration of 400 nM, and the two solutions were mixed by swirling the flasks. As a control, cells were treated with LIPOFECTIN™ without oligonucleotide under the same conditions and for the same times as the oligonucleotide-treated samples. After 4 hours at 37° C., the medium was replaced with fresh DMEM containing 10% serum. The cells were allowed to recover for 18 hours. Total cellular RNA was then extracted in guanidinium, subject to gel electrophoresis and transferred to a filter according to techniques known in the art (see, e.g., Chapter 7 In: Molecular Cloning: A Laboratory Manual, 2nd Ed., Sambrook et al., Eds., pages 7.1-7.87, and Short Protocols in Molecular Biology, 2nd Ed., Ausubel et al., Eds., John Wiley & Sons, New York, 1992, pages 2-24 to 2-30 and 4-14 to 4-29). Filters were typically hybridized overnight to a probe specific for the particular JNK gene of interest in hybridization buffer (25 mM KPO4, pH 7.4; 5×SSC; 5× Denhardt's solution, 100 μg/ml Salmon sperm DNA and 50% formamide) (Alahari et al., Nucl. Acids Res., 1993, 21, 4079). This was followed by two washes with 1×SSC, 0.1% SDS and two washes with 0.25×SSC, 0.1% SDS. Hybridizing bands were visualized by exposure to X-OMAT AR film and quantitated using a PHOSPHORIMAGER™ essentially according to the manufacturer's instructions (Molecular Dynamics, Sunnyvale, Calif.)
B. JNK1-specific probes: In initial screenings of a set of oligonucleotides derived from the JNK1 sequence (Table 2) for biological activity, a cDNA clone of JNK1 (Derijard et al., Cell, 1994, 76, 1025) was radiolabeled and used as a JNK1-specific probe in Northern blots. […]

JNK2 mRNA = test: Northern assay of JNK2 mRNA expression in A549 cells; type: cell-based, human; settings: JNK2 mRNA, A549 cells, 400 nM oligonucleotide, relative to LIPOFECTIN-only control
Protocol: as §1, §2, §3, §4
B. JNK2-specific probes: In initial screenings of a set of oligonucleotides derived from the JNK2 sequence (Table 9) for biological activity, a cDNA clone of JNK2 (Kallunki et al., Genes & Development, 1994, 8, 2996) was radiolabeled and used as a JNK2-specific probe in Northern blots. […]

[1] = JNK1 mRNA, A549 cells, 400 nM oligonucleotide
[2] = JNK1 mRNA, A549 cells, 400 nM oligonucleotide, 100% - % expression

| Substance | % EXPRESSION (JNK1 mRNA; [1]) [%] | % INHIBITION (JNK1 mRNA; [2]) [%] | further results |
| --- | --- | --- | --- |
| 11978 (antisense ATTCTTTCCACTCTTCTATT; DNA, all phosphorothioate, methylation of C not given here) [compound 11978] | 85 | 15 | – |
| 11979 (antisense CTCCTCCAAGTCCATAACTT; DNA, all phosphorothioate, methylation of C not given here) [compound 11979] | 90 | 10 | – |
| 11980 (antisense CCCGTATAACTCCATTCTTG; DNA, all phosphorothioate, methylation of C not given here) [compound 11980] | 85 | 15 | – |
| 11981 (antisense CTGTGCTAAAGGAGAGGGCT; DNA, all phosphorothioate, methylation of C not given here) [compound 11981] | 62 | 28 | – |
| 11982 (antisense ATGATGGATGCTGAGAGCCA; DNA, all phosphorothioate, methylation of C not given here) [compound 11982] | 13 | – | – |
| 11983 (antisense GTTGACATTGAAGACACATC; DNA, all phosphorothioate, methylation of C not given here) [compound 11983] | 40 | – | – |
| 11984 (antisense CTGTATCAGAGGCCAAAGTC; DNA, all phosphorothioate, methylation of C not given here) [compound 11984] | 53 | 47 | – |
| 11985 (antisense TGCTGCTTCTAGACTGCTGT; DNA, all phosphorothioate, methylation of C not given here) [compound 11985] | 47 | – | – |
| 11986 (antisense AGTCATCTACAGCAGCCCAG; DNA, all phosphorothioate, methylation of C not given here) [compound 11986] | 90 | 10 | – |
| 11987 (antisense CCATCCCTCCCACCCCCCGA; DNA, all phosphorothioate, methylation of C not given here) [compound 11987] | 47 | – | – |
| 11988 (antisense ATCAATGACTAACCGACTCC; DNA, all phosphorothioate, methylation of C not given here) [compound 11988] | 78 | 22 | – |
| 11989 (antisense CAAAAATAAGACCACTGAAT; DNA, all phosphorothioate, methylation of C not given here) [compound 11989] | 60 | 40 | – |
| 12463 (antisense CACGCTTGCTTCTGCTCATG; DNA, all phosphorothioate, methylation of C not given here) [compound 12463] | 23 | – | – |
| 12464 (antisense CGGCTTAGCTTCTTGATTGC; DNA, all phosphorothioate, methylation of C not given here) [compound 12464] | 18 | – | – |
| 12538 (antisense CCCGCTTGGCATGAGTCTGA; chemistry not fully specified) [compound 12538] | 33 | – | – |
| 12548 (antisense ATTTGCATCCATGAGCTCCA; DNA, all phosphorothioate, methylation of C not given here) [compound 12548] | 5 | – | – |
| 12549 (antisense CGTTCCTGCAGTCCTGGCCA; DNA, all phosphorothioate, methylation of C not given here) [compound 12549] | 28 | – | – |
| 12550 (antisense GGATGACCTCGGGTGCTCTG; DNA, all phosphorothioate, methylation of C not given here) [compound 12550] | 40 | – | – |
| 12551 (antisense CCCATAATGCACCCCACAGA; DNA, all phosphorothioate, methylation of C not given here) [compound 12551] | 52 | 48 | – |
| 12552 (antisense CGGGTGTTGGAGAGCTTCAT; DNA, all phosphorothioate, methylation of C not given here) [compound 12552] | 34 | – | – |
| 12553 (antisense TTTGGTGGTGGAGCTTCTGC; DNA, all phosphorothioate, methylation of C not given here) [compound 12553] | 25 | – | – |
| 12554 (antisense GGCTGCCCCCGTATAACTCC; DNA, all phosphorothioate, methylation of C not given here) [compound 12554] | 11 | – | – |
| 12555 (antisense TGCTAAAGGAGAGGGCTGCC; DNA, all phosphorothioate, methylation of C not given here) [compound 12555] | 27 | – | – |
| 12556 (antisense AGGCCAAAGTCGGATCTGTT; DNA, all phosphorothioate, methylation of C not given here) [compound 12556] | 41 | – | – |
| 12557 (antisense CCACCCCCCGATGGCCCAAG; DNA, all phosphorothioate, methylation of C not given here) [compound 12557] | 29 | – | – |
| 12558 (antisense dG*dT*dT*dT*dC*dA*dG*dA*dT*dC*dC*dC*dT*dC*dG*dC*dC*dC*dG*dC) [compound 12558] | – | – | % EXPRESSION (JNK2 mRNA): 15% |
| 12559 (antisense dT*dG*dC*dA*dG*dC*dA*dC*dA*dA*dA*dC*dA*dA*dT*dC*dC*dC*dT*dT) [compound 12559] | – | – | % EXPRESSION (JNK2 mRNA): 28% |
| 14320 (sense CCAAGCGGGCCTACAGAGAG; DNA, all phosphorothioate, methylation of C not given here) [compound 14320] | – | – | Normalized % Control (JNK1 mRNA; 50 nM): 103.6%; Normalized % Control (JNK1 mRNA; 100 nM): 76.3%; Normalized % Control (JNK1 mRNA; 200 nM): 98.9%; Normalized % Control (JNK1 mRNA; 400 nM): 97.1% |
| 14321 (CTTTCCGTTGGACCCCTGGG; DNA, all phosphorothioate, methylation of C not given here) [compound 14321] | – | – | Normalized % Control (JNK1 mRNA; 50 nM): 91.8%; Normalized % Control (JNK1 mRNA; 100 nM): 94.1%; Normalized % Control (JNK1 mRNA; 200 nM): 100.2%; Normalized % Control (JNK1 mRNA; 400 nM): 79.2% |
| CTC-TCT-GTA-GGC-CCG-CTT-GG (CTCTCTGTAGGCCCGCTTGG; chemistry not given here) [ISIS 12539] | – | – | % INHIBITION (JNK1 mRNA; JNK1 mRNA time course, t=0 h after 4 hour treatment): greater than 85%; % INHIBITION (JNK1 mRNA; JNK1 mRNA time course, t=4 h): about 95%; % INHIBITION (JNK1 mRNA; JNK1 mRNA time course, t=12 h): greater than or equal to 80%; % INHIBITION (JNK1 mRNA; JNK1 mRNA time course, t=48 h): greater than or equal to 80%; % INHIBITION (JNK1 mRNA; JNK1 mRNA time course, time 272 h [sic] (t=72 h in text)): ≥ 60% |
